Structures can show the parent of a compound that is named as a salt.
Tests used:
[1] = Stability (HPLC purity) of acid salts in water, stirred at 42 °C for 3 days; format: physicochemical; conditions: for Purity % a/a after 3 days (HPLC): in water, stirred at 42 °C for 3 days
Procedure: (§1) Crystalline forms (i.e., salts and free base) of the present invention were analyzed by total area normalization (TAN).
The mixture was stirred at 42 °C for 3 days and each solution was analyzed by HPLC for concentration and purity. Table 11 Solubility and Purity of Acid Addition Salts

[2] = Solid-form stability of acid salts stored at elevated temperature (HPLC purity); format: physicochemical; conditions: for Purity % a/a after 3 days at 80 °C (HPLC): solid form stored at 80 °C
Procedure: as §1
Stability of the acid salts were also tested by storing the salts (solid forms) at an elevated temperature of 45 and 80 °C. Table 12 Stability of Acid Addition Salts

physchem = conditions: 42 °C, water, thermodynamic from solid
[3] = water, 72 h

Cc1cnc(CNC(=O)c2c(=O)c3ccc(N4CCCN(C)CC4)nc3n3c2sc2ccccc23)cn1 [Free Base, 2-(4-Methyl-[1,4]diazepan-1-yl)-5-oxo-5H-7-thia-1,11b-diaza-benzo[c]fluorene-6-carboxylic acid (5-methyl-pyrazin-2-ylmethyl)-amide]
Purity % a/a after 3 days (HPLC) [1]: 99.58 % a/a | Purity % a/a after 3 days at 80 °C (HPLC) [2]: 99.67 % a/a | solubility at 3 days (physchem): < 100 mg/mL

Cc1cnc(CNC(=O)c2c(=O)c3ccc(N4CCCN(C)CC4)nc3n3c2sc2ccccc23)cn1 [HCl]
Starting Purity % a/a (HPLC) ([1]; before the 3 day test (time zero)): 98.78 % a/a | Purity % a/a after 3 days (HPLC) [1]: 88.62 % a/a | Purity % a/a after 3 days at 45 °C (HPLC) ([2]; solid form stored at 45 °C): 98.48 % a/a | Purity % a/a after 3 days at 80 °C (HPLC) [2]: 98.71 % a/a | Aqueous Solubility (Calculated) [3]: > 100 mg/mL

From patent publication EP3394070B1, “CRYSTALLINE FORMS OF QUINOLONE ANALOGS AND THEIR SALTS” (Senhwa Biosciences, Inc., priority 2015, dated 2017)
